Data: the supplement of paper PMC10307832

Experiments:
AZ505 + Trametinib = compound: C1CCC(CC1)N(CCNCCC2=C3C(=C(C=C2)O)NC(=O)CO3)C(=O)CCNCCC4=CC(=C(C=C4)Cl)Cl [AZ505] + CC(=O)Nc1cccc(-n2c(=O)n(C3CC3)c(=O)c3c(Nc4ccc(I)cc4F)n(C)c(=O)c(C)c32)c1 [Trametinib] (partner 0.02 µM); assay: relative viability (nuclei count vs DMSO), 5 days (fraction); higher = more cells survive
How it was run: (§1)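 Five library-drug doses in √10 steps were combined with a fixed anchor-drug dose, or a single drug was given alone, by pin tool to lung cancer cell lines in 1536-well plates the day after seeding. Nuclei were stained and counted after 5 days. Relative viability is the nuclei count in treated wells over that in vehicle wells, taken as the median of duplicate plates.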

AZ505 + AZD7762 = compound: C1CCC(CC1)N(CCNCCC2=C3C(=C(C=C2)O)NC(=O)CO3)C(=O)CCNCCC4=CC(=C(C=C4)Cl)Cl [AZ505] + NC(=O)Nc1cc(-c2cccc(F)c2)sc1C(=O)N[C@H]1CCCNC1 [AZD7762] (partner 0.2 µM); assay: as above
How it was run: as §1

| Cell Line | relative viability (AZ505 + Trametinib; first compound 0.08 µM) | relative viability (AZ505 + Trametinib; first compound 0.253 µM) | relative viability (AZ505 + Trametinib; first compound 0.8 µM) | relative viability (AZ505 + Trametinib; first compound 2.53 µM) | relative viability (AZ505 + Trametinib; first compound 8 µM) | relative viability (AZ505 + AZD7762; first compound 0.08 µM) | relative viability (AZ505 + AZD7762; first compound 0.253 µM) | relative viability (AZ505 + AZD7762; first compound 0.8 µM) | relative viability (AZ505 + AZD7762; first compound 2.53 µM) | relative viability (AZ505 + AZD7762; first compound 8 µM) |
| --- | --- | --- | --- | --- | --- | --- | --- | --- | --- | --- |
| 201T | 0.688 | 0.716 | 0.722 | 0.705 | 0.711 | 0.63 | 0.572 | 0.688 | 0.596 | 0.613 |
| A-427 | 0.705 | 0.776 | 0.631 | 0.738 | 0.743 | 0.695 | 0.618 | 0.705 | 0.715 | 0.647 |
| ABC-1 |  |  |  |  |  | 0.637 | 0.537 | 0.918 | 0.825 | 0.859 |
| BEN | 0.971 | 1.08 | 0.972 | 1 | 1.08 | 0.594 | 0.433 | 0.621 | 0.758 | 0.759 |
| CAL-12T | 0.335 | 0.414 | 0.312 | 0.36 | 0.337 | 0.62 | 0.647 | 0.605 | 0.575 | 0.814 |
| COR-L23 | 0.45 | 0.516 | 0.519 | 0.534 | 0.482 |  |  |  |  |  |
| COR-L 105 | 0.403 | 0.452 | 0.446 | 0.428 | 0.476 |  |  |  |  |  |
| ChaGo-K-1 | 0.838 | 0.918 | 0.871 | 0.846 | 0.91 | 0.73 | 0.836 | 0.766 | 0.888 | 0.886 |
| EKVX |  | 0.326 | 0.321 | 0.414 | 0.397 |  | 0.629 | 0.849 | 0.678 | 0.746 |
| EMC-BAC-2 | 0.83 |  | 0.876 | 0.82 | 0.902 | 0.957 | 1.17 | 1.11 | 1.14 | 1.14 |
| EPLC-272H | 0.308 | 0.292 | 0.307 | 0.277 | 0.269 | 0.451 | 0.253 | 0.433 | 0.424 | 0.343 |
| H3255 |  | 0.604 | 0.543 | 0.578 | 0.611 | 0.737 | 0.883 | 0.906 | 0.942 | 0.957 |
| HARA | 0.454 |  | 0.62 | 0.504 | 0.71 | 0.354 |  | 0.33 | 0.693 | 0.351 |
| HCC-15 | 0.278 | 0.391 | 0.341 | 0.366 | 0.372 | 0.711 | 1.24 | 1.24 | 1.13 | 1.42 |
| HCC-44 | 1.03 | 1.09 | 1.02 | 1.05 | 1.1 | 1 | 0.964 | 0.916 | 1.03 | 1.02 |
| HCC-78 |  |  | 0.594 | 0.701 | 0.653 |  |  | 0.75 | 0.719 | 0.558 |
| HCC-366 | 0.288 | 0.331 | 0.281 | 0.289 | 0.332 | 0.357 | 0.215 | 0.281 | 0.151 | 0.247 |
| HCC-827 | 0.548 | 0.577 | 0.501 | 0.501 | 0.533 | 0.25 | 0.163 | 0.49 | 0.204 | 0.263 |

| Cell Line | relative viability (AZ505 + Trametinib; first compound 0.08 µM) | relative viability (AZ505 + Trametinib; first compound 0.253 µM) | relative viability (AZ505 + Trametinib; first compound 0.8 µM) | relative viability (AZ505 + Trametinib; first compound 2.53 µM) | relative viability (AZ505 + Trametinib; first compound 8 µM) | relative viability (AZ505 + AZD7762; first compound 0.08 µM) | relative viability (AZ505 + AZD7762; first compound 0.253 µM) | relative viability (AZ505 + AZD7762; first compound 0.8 µM) | relative viability (AZ505 + AZD7762; first compound 2.53 µM) | relative viability (AZ505 + AZD7762; first compound 8 µM) |
| --- | --- | --- | --- | --- | --- | --- | --- | --- | --- | --- |
| HOP-62 | 0.371 | 0.326 | 0.333 | 0.382 | 0.32 | 0.43 | 0.328 | 0.682 | 0.63 | 0.669 |
| LC-2-ad | 0.844 | 0.885 | 0.894 | 0.889 | 0.947 | 0.801 | 0.821 | 0.867 | 0.847 | 0.832 |
| LCLC-97TM1 | 0.208 | 0.156 | 0.166 |  | 0.191 | 0.427 | 0.111 | 0.301 | 0.317 | 0.354 |
| LCLC-103H | 0.714 | 0.625 | 0.604 | 0.669 | 0.69 | 0.711 | 0.719 | 0.665 | 0.647 | 0.718 |
| LK-2 | 0.661 | 0.687 | 0.718 | 0.865 | 0.865 | 0.512 | 0.264 | 0.597 | 0.342 | 0.403 |
| LOU-NH91 | 0.772 | 0.77 | 0.76 | 0.798 | 0.765 | 0.734 | 0.737 | 0.744 | 0.775 | 0.781 |
| LU99A | 0.518 | 0.51 | 0.531 |  | 0.498 | 0.341 | 0.54 | 0.358 |  | 0.361 |
| LXF-289 | 0.632 | 0.629 | 0.66 | 0.678 | 0.665 | 1.07 | 1.04 | 1.14 | 1.03 | 1.16 |
| NCI-H23 | 0.246 | 0.414 | 0.427 | 0.442 | 0.347 | 0.228 | 0.146 | 0.255 | 0.268 | 0.157 |
| NCI-H322M | 0.501 |  | 0.521 | 0.491 | 0.486 | 0.629 |  | 0.582 | 0.616 | 0.545 |
| NCI-H358 | 0.113 | 0.136 | 0.112 | 0.119 | 0.13 | 0.466 | 0.52 | 0.422 |  | 0.526 |
| NCI-H441 | 0.413 | 0.385 | 0.536 | 0.568 | 0.465 | 0.876 | 1.14 | 1.06 | 1.36 | 1.54 |
| NCI-H460 | 0.218 | 0.174 | 0.065 | 0.126 | 0.0757 | 0.701 | 0.522 | 0.623 | 0.483 | 0.621 |
| NCI-H520 | 0.766 | 0.638 | 0.661 | 0.639 | 0.699 |  |  |  |  |  |
| NCI-H522 | 0.71 | 0.726 | 0.945 | 0.842 | 0.8 | 0.678 | 0.747 | 0.727 | 1.11 | 0.887 |
| NCI-H596 | 0.721 |  | 0.593 | 0.648 | 0.674 | 1.18 |  | 1.02 | 1.04 | 0.916 |
| NCI-H647 | 0.478 | 0.509 | 0.404 | 0.379 | 0.467 | 0.344 | 0.226 | 0.539 | 0.576 | 0.722 |
| NCI-H650 | 0.98 | 0.841 | 0.924 | 0.893 | 1.15 | 0.917 | 0.243 | 0.879 | 1.29 | 0.944 |
